The values below come from patent US7652011B2, “4-[(arylmethyl)aminomethyl]piperidine derivatives, their preparation and their therapeutic application” (sanofi-aventis, priority 2003, dated 2010).

Each structure is given as a SMILES string.

Broadly, the melting point is the temperature of the solid-liquid transition.

Regarding `Cn1cccc1CNCC1(c2cccc(C(F)(F)F)c2)CCN(C(=O)CN2CCN(c3cnccn3)CC2)CC1` [Compound 1, [(1-Methyl-1H-pyrrol-2-yl)methyl][[1-[(4-pyrazin-2-ylpiperazin-1-yl)acetyl]-4-[3-(trifluoromethyl)phenyl]piperidin-4-yl]methyl]amine], the melting point is 104 to 105 °C.
